The record followed here is US10961215B2, “N-aryl and N-heteroaryl piperidine derivatives as liver X receptor beta agonists, compositions, and their use” (Merck Sharp & Dohme Corp., priority 2016, dated 2021).

Assay [1] addresses T1, GST tagged LXRalpha LBD (ligand binding domain) (Homo sapiens, UniProt Q13133).
T1 construct: purchased Invitrogen pv4655
T1 sequence (Q13133 209-447 limits assumed): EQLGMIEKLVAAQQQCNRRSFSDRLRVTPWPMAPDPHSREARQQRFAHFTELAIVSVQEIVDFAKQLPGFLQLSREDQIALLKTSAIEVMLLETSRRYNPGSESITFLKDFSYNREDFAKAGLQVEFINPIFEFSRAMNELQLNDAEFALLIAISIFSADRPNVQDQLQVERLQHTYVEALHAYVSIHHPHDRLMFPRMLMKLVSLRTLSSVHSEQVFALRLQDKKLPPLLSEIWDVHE
In words: LanthaScreen TR-FRET Liver X Receptor Coactivator Assay, LXR alpha-LBD (co-activator recruitment; IP and % Emax relative to T0901317). It counts as biochemical. Conditions: for LXR alpha IP (nM) / EC50: Inflection Point of co-activator recruitment, LXR alpha-LBD, TR-FRET; for Emax / LXR alpha actiivty at max dose (%): efficacy at max dose in relation to reference T0901317, LXR alpha-LBD; for Emax: read-out: LXR alpha actiivty at max dose (%). In short, it runs like this:
(§1)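 Readout is time-resolved FRET between a terbium anti-GST antibody bound to the tagged LBD and a fluorescein-labelled coactivator peptide recruited on ligand binding. Samples are incubated at room temperature before reading, and efficacy is expressed against T0901317.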
(In general: Time-resolved FRET reads energy transfer from a long-lived donor to a nearby acceptor.)

In assay [2] the target is T2, GST tagged LXRbeta LBD (ligand binding domain) (Homo sapiens, UniProt P55055).
T2 construct: purchased Invitrogen pv4658.pps
T2 sequence (P55055 222-460 limits assumed): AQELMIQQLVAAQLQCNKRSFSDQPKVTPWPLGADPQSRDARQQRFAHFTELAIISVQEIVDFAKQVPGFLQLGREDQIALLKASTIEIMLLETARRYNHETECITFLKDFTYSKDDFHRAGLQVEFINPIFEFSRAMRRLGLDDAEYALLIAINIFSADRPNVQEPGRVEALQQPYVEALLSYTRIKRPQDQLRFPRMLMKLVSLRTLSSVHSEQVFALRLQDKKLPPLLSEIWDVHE
The assay is described as follows: LanthaScreen TR-FRET Liver X Receptor Coactivator Assay, LXR beta-LBD (co-activator recruitment; IP and % Emax relative to T0901317). The class given is biochemical. Conditions: for EC50: Inflection Point of co-activator recruitment, LXR beta-LBD, TR-FRET; for Emax: read-out: LXR beta actiivty at max dose (%). The gist of the method:
as §1

Setting [3] is: efficacy at max dose in relation to reference T0901317, LXR beta-LBD.

Turning to `COc1cccc([C@@](O)(C(=O)N(C)CCCC2CCN(c3ccc(C(=O)N(C)C(C)C)c(Cl)n3)CC2)C(F)(F)F)c1` [Example 2-4, (R)-2-chloro-N-isopropyl-N-methyl-6-(4-(3-(3,3,3-trifluoro-2-hydroxy-2-(3-methoxyphenyl)-N-methylpropanamido)propyl)piperidin-1-yl)nicotinamide], the “LXR alpha IP (nM)” value in assay [1] is on record as “No IP”. In addition, the Emax came out at 0% in assay [1] and 61% in assay [2] (setting [3]). Also, the concentration giving a half-maximal response (EC50) (commonly the concentration at which the effect is half-maximal) in assay [2] is 24 nM.
For `COc1cccc([C@@](O)(C(=O)N(C)CCCC2CCN(c3ccc(C(=O)N4C(C)CCC4C)c(Cl)n3)CC2)C(F)(F)F)c1` (stereo partly drawn) [Example 2-10, (2R)-N-(3-(1-(6-chloro-5-(2,5-dimethylpyrrolidine-1-carbonyl)pyridin-2-yl)piperidin-4-yl)propyl)-3,3,3-trifluoro-2-hydroxy-2-(3-methoxyphenyl)-N-methylpropanamide], in assay [1], the “LXR alpha IP (nM)” value is “No IP” and the Emax worked out at 0%. Also, in assay [2], the EC50 is 134 nM. Also, the Emax in assay [2] (setting [3]) is 43%.
For the compound `CN(C)C(=O)c1ccc(N2CCC3(CC2)C[C@@H]3CCN(C)C(=O)[C@](O)(c2cccc(OC3CC3)c2)C(F)(F)F)cc1Cl` [Example 7-3, 2-chloro-4-((R)-1-(2-((R)-2-(3-cyclopropoxyphenyl)-3,3,3-trifluoro-2-hydroxy-N-methylpropanamido)ethyl)-6-azaspiro[2.5]octan-6-yl)-N,N-dimethylbenzamide], the EC50 amounted to 601 nM in assay [1] and 32 nM in assay [2]. Besides, the Emax in assay [1] came to 24%; in assay [2] (setting [3]), 61%.
For `CNC(=O)c1ccc(N2CCC(CC3CC(NC(=O)[C@](O)(c4ccccc4)C(F)(F)F)C3)CC2)cc1Cl` (stereo partly drawn) [Example 11-3, (R)-2-chloro-N-methyl-4-(4-((3-(3,3,3-trifluoro-2-hydroxy-2-phenylpropanamido)cyclobutyl)methyl)piperidin-1-yl)benzamide], the EC50 in assay [1] worked out at 6010 nM; in assay [2], 508 nM. In addition, the values for the Emax in assay [1] and in assay [2] (setting [3]) were 22% and 93%, respectively.
In the case of `CN(C)C(=O)c1ccc(N2CCC([C@@H]3C[C@H]3CNC(=O)[C@@](O)(c3ccccc3)C(F)(F)F)CC2)cc1Cl` [Example 15-17, 2-chloro-N,N-dimethyl-4-(4-((1S,2R)-2-(((S)-3,3,3-trifluoro-2-hydroxy-2-phenylpropanamido)methyl)cyclopropyl)piperidin-1-yl)benzamide], in assay [1], the “LXR alpha IP (nM)” value is reported as “No IP” and the “LXR alpha actiivty at max dose (%)” value is 0%. Besides, the EC50 in assay [2] stood at 505 nM. Moreover, the Emax in assay [2] (setting [3]) is 79%.
Turning to `CN(C)C(=O)c1ccc(N2CCC([C@@H]3C[C@H]3CNC(=O)[C@](O)(c3ccccc3)C(F)(F)F)CC2)nc1Cl` [Example 15-14, 2-chloro-N,N-dimethyl-6-(4-((1S,2R)-2-(((R)-3,3,3-trifluoro-2-hydroxy-2-phenylpropanamido)methyl)cyclopropyl)piperidin-1-yl)nicotinamide], in assay [1], the “LXR alpha IP (nM)” value was “No IP”. The figures for the Emax in assay [1] and in assay [2] (setting [3]) were 3% and 69%, respectively. In addition, the EC50 in assay [2] is 264 nM.
For `CNC(=O)c1ccc(N2CCC([C@H]3C[C@H]3CNC(=O)[C@](O)(c3cccc(OC)c3)C(F)(F)F)CC2)nc1Cl` [Example 15-11, 2-chloro-N-methyl-6-(4-((1R,2R)-2-(((R)-3,3,3-trifluoro-2-hydroxy-2-(3-methoxyphenyl)propanamido)methyl)cyclopropyl)piperidin-1-yl)nicotinamide], in assay [1], the “LXR alpha IP (nM)” value is given as “No IP” and the Emax was 1%. Besides, the EC50 in assay [2] was found to be 4440 nM. Further, in assay [2] (setting [3]), the Emax is 36%.
As for `COc1cccc([C@@](O)(C(=O)N(C)CC[C@H]2CC23CCN(c2ccc(C(=O)NC4CC4)c(Cl)c2)CC3)C(F)(F)F)c1` [Example 7-9, 2-chloro-N-cyclopropyl-4-((R)-1-(2-((R)-3,3,3-trifluoro-2-hydroxy-2-(3-methoxyphenyl)-N-methylpropanamido)ethyl)-6-azaspiro[2.5]octan-6-yl)benzamide], the EC50 in assay [1] amounted to 775 nM; in assay [2], 109 nM. In addition, the Emax amounted to 25% in assay [1] and 52% in assay [2] (setting [3]).
Consider `COc1cccc([C@@](O)(C(=O)N(C)CC[C@@H]2CC23CCN(c2ccc(C(=O)N(C)C(C)C)c(Cl)c2)CC3)C(F)(F)F)c1` [Example 7-30, 2-chloro-N-isopropyl-N-methyl-4-((S)-1-(2-((R)-3,3,3-trifluoro-2-hydroxy-2-(3-methoxy-phenyl)-N-methyl-propanamido)ethyl)-6-azaspiro[2.5]octan-6-yl)benzamide], for which, in assay [1], the “LXR alpha IP (nM)” value is reported as “No IP” and the Emax worked out at 0%. Moreover, the EC50 in assay [2] amounted to 557 nM. For the same compound, in assay [2] (setting [3]), the Emax is 27%.
As to `CN(C)C(=O)c1ccc(N2CCC(CCCN(C)C(=O)[C@](O)(c3ccccc3)C(F)(F)F)CC2)nc1Cl` [Example 1-1, (R)-2-chloro-N,N-dimethyl-6-(4-(3-(3,3,3-trifluoro-2-hydroxy-N-methyl-2-phenylpropanamido)propyl)piperidin-1-yl)nicotinamide], in assay [1], the EC50 came out at 752 nM and the “LXR alpha actiivty at max dose (%)” value is listed as 27%. In addition, the “LXR beta actiivty at max dose (%)” value in assay [2] (setting [3]) was 78%.
Regarding `COc1cccc([C@@](O)(C(=O)N(C)CCCC2CCN(c3ccc(C(=O)N(C)Cc4noc(C5CC5)n4)c(Cl)n3)CC2)C(F)(F)F)c1` [Example 2-12, (R)-2-chloro-N-((5-cyclopropyl-1,2,4-oxadiazol-3-yl)methyl)-N-methyl-6-(4-(3-(3,3,3-trifluoro-2-hydroxy-2-(3-methoxyphenyl)-N-methylpropanamido)propyl)piperidin-1-yl)nicotinamide], the figures for the half-maximal effective concentration (EC50) in assay [1] and in assay [2] were 95 nM and 11 nM, respectively. The values for the Emax in assay [1] and in assay [2] (setting [3]) were 40% and 62%, respectively.
Regarding `CN(C)C(=O)c1ccc(N2CCC(CCCNC(=O)[C@](O)(c3cc(Cl)cc(Cl)c3)C(F)(F)F)CC2)nc1Cl` [Example 5-13, (R)-2-chloro-6-(4-(3-(2-(3,5-dichlorophenyl)-3,3,3-trifluoro-2-hydroxypropanamido)propyl)piperidin-1-yl)-N,N-dimethylnicotinamide], in assay [1], the “LXR alpha IP (nM)” value is “No IP” and the Emax was determined as 9%. In addition, the response in assay [2] was half-maximal at 187 nM (EC50). For the same compound, the Emax in assay [2] (setting [3]) turned out to be 54%.
On to `CN(CC[C@@H]1CC12CCN(c1ccc(C(=O)NC3CC3)c(Cl)c1)CC2)C(=O)[C@](O)(c1ccccc1)C(F)(F)F` [Example 7-26, 2-chloro-N-cyclopropyl-4-((S)-1-(2-((R)-3,3,3-trifluoro-2-hydroxy-N-methyl-2-phenylpropanamido)ethyl)-6-azaspiro[2.5]octan-6-yl)benzamide], for which the EC50 worked out at 6100 nM in assay [1] and 1020 nM in assay [2]. The results for the Emax in assay [1] and in assay [2] (setting [3]) were 32% and 31%, respectively.
For the compound `CN(C)C(=O)c1ccc(N2CCC(CCCNC(=O)C(C)(C)c3ccccc3)CC2)cc1Cl` [Example 5-4, 2-chloro-N,N-dimethyl-4-(4-(3-(2-methyl-2-phenylpropanamido)propyl)piperidin-1-yl)benzamide], in assay [1], the “LXR alpha IP (nM)” value is “No IP” and the Emax was found to be 16%. Moreover, the midpoint of the response in assay [2], the EC50, lay at 561 nM. The Emax in assay [2] (setting [3]) is 72%.
In the same order, the values of `COc1cccc([C@@](O)(C(=O)N(C)CCCC2CCN(c3ccc(C(=O)N4CC(N)C4)c(Cl)n3)CC2)C(F)(F)F)c1` [Example 2-13, (R)-N-(3-(1-(5-(3-aminoazetidine-1-carbonyl)-6-chloropyridin-2-yl)piperidin-4-yl)propyl)-3,3,3-trifluoro-2-hydroxy-2-(3-methoxyphenyl)-N-methylpropanamide] are “No IP”, 11%, 195 nM and 60%.
For the compound `COc1cccc([C@@](O)(C(=O)N(C)[C@H]2C[C@H](C3CCN(c4ccc(C(=O)N(C)C)c(Cl)n4)CC3)C2)C(F)(F)F)c1` [Example 17-3, Trans-2-chloro-N,N-dimethyl-6-(4-(-3-((R)-3,3,3-trifluoro-2-hydroxy-2-(3-methoxyphenyl)-N-methylpropanamido)cyclobutyl)piperidin-1-yl)nicotinamide], in assay [1], the “LXR alpha IP (nM)” value is reported as “No IP” and the Emax was determined as 12%. For the same compound, the EC50 in assay [2] is 27 nM. In addition, the Emax in assay [2] (setting [3]) is 65%.
In the same order, the values of `CC(C)N(C)C(=O)c1ccc(N2CCC(CCCN(C)C(=O)[C@](O)(c3ccccc3)C(F)(F)F)CC2)cc1Cl` [Example 4-10, (R)-2-chloro-N-isopropyl-N-methyl-4-(4-(3-(3,3,3-trifluoro-2-hydroxy-N-methyl-2-phenylpropanamido)propyl)piperidin-1-yl)benzamide] are “No IP”, 10%, 162 nM and 67%.
